Measurements as given in US4721715A, “Derivatives of 4-(arylpiperazinyl-ethylaminoethoxy) phenol useful for effecting hypolipidemic therapy or cardiovascular therapy” (Societe Cortial, S.A., priority 1984, dated 1988).
Structures can show the parent of a compound that is named as a salt.

What was measured:
mice [1] = experiment: Toxicity, intraperitoneal administration to mice
[2] = system: phenylephrine-induced hypertension; experiment: Alpha-blocking activity in vivo: antagonism of phenylephrine-induced hypertension in rats with spinal cord removal and bivagotomy; settings: intravenous; for inhibition in vivo at 3 µmol/kg / ED50: Rattus norvegicus; for inhibition in vivo at 3 µmol/kg: read-out: maximum activity (antagonism of phenylephrine-induced hypertension)
Description: (§1) Alpha-blocking activity was determined in vivo in mice with the test involving inhibition of mydriasis induced by norepinephrine. […] Thirty minutes later, 0.75 mg/kg norepinephrine was administered intravenously. […] In vivo alpha-blocking activity was also evaluated by determination of antagonism of phenylephrine-induced hypertension. The test products were administered by the intravenous route to rats that had undergone spinal cord removal and bivagotomy according to the technique by J. S. Gillespie and T. S. Muir (Br. J. Pharmac. Chemother. 30:78-87, 1967). The dosage, maximum activity, and the interval after which residual activity was equal to 50% of the maximum activity are presented below: […]

mice [3] = experiment: Toxicity, oral administration to mice; format: in vivo; settings: oral dose of 300 mg/kg
[4] = system: norepinephrine-induced mydriasis; experiment: Alpha-blocking activity in vivo: inhibition of norepinephrine-induced mydriasis in mice; settings: 25 mg/kg, 0.75 mg/kg norepinephrine IV
Description: as §1

histamine = experiment: Combined anaphylactic reaction (IgE) and cutaneous histamine reaction in the same rat: histamine reaction; format: in vivo, Sprague-Dawley rat
Description: (§2) Antihistamine-antiallergy activity was also determined by combining an anaphylactic reaction (IgE) and a cutaneous histamine reaction in the same animal (Sprague-Dawley rat). Activity was evaluated by the quantity of Evans blue liberated at each reaction site as compared with control animals receiving the administration vehicle. COR 2831 produced the following ED50 values in this test: […]

IgE = experiment: Combined anaphylactic reaction (IgE) and cutaneous histamine reaction in the same rat: IgE reaction; format: in vivo, Sprague-Dawley rat
Description: as §2

Alpha-1 [5] = experiment: Alpha-1 blocking activity in vitro: antagonism of norepinephrine-induced contractions of isolated rabbit aorta strips; settings: norepinephrine 2.10^-6 mol/1
[6] = Toxicity, intravenous administration to mice; format: in vivo; settings: mouse, in vivo, intravenous route
[7] = system: isolated guinea pig ileum (histamine); experiment: Antihistamine activity in vitro: histamine-induced contractions of isolated guinea pig ileum; settings: histamine 5.10^-7 g/ml
Alpha-1 [8] = experiment: Type of antagonism vis-a-vis norepinephrine on isolated rabbit aorta strips (cumulative curve method, Van Rossum, in presence of cocaine); settings: 30 minutes interval
Description: Alpha-1 Blocking Activity: Alpha-1 blocking activity is evaluated in vitro by determination of the antagonism of contractions induced in isolated rabbit aorta strips by norepinephrine used in a concentration of 2.10^-6 mol/1 according to a technique derived from that described by Furchgott and Bhadrakom (J. Pharmacol. 108:129-43, 1953). The IC50 (concentration inhibiting 50% of the contractions) as well as the interval between introduction of the test product and of the […] into the bath, which corresponds to the maximum activity, are presented below for the derivatives according to the present invention: COR 2831, 90 min, 1.10·10^-7 (9.26·10^-8 -1.31·10^-7)mol/1; COR 2837, 30 min, 1.64·10^-6 (1.44·10^-6 -1.85·10^-6) mol/1; COR 2841, 60 min, 1.16·10^-6(9.24·10^-7 -1.46·10^-6) mol/1; COR 2843, 60 min, 9.82·10^ -7 (7.67·10^-7 -1.26·10^-6) mol/1; COR 2838, 60 min, 2.53·10^-6(2.15·10^-6 -2.98·10^-6 mol/1. The type of antagonism that COR 2831 exerts vis-a-vis norepinephrine was determined on the same type of preparation for an interval of 30 minutes, using the cumulative curve method according to Van Rossum in the presence of cocaine.

[9] = Toxicity, oral administration to mice; format: in vivo; settings: mouse, in vivo, oral route, confidence interval in parentheses
[10] = system: passive cutaneous anaphylaxis; experiment: Passive cutaneous anaphylaxis test in rats; format: in vivo
Description: Antiallergy-Antihistamine Activity: In the passive cutaneous anaphylaxis test, COR 2833 and COR 2838 given to rats in an intravenous dose of 10 mg/kg produced 53 and 60% activity, respectively. Under the same conditions, COR 2831 produced 67% activity in an oral dose of 5 mg/kg.

[11] = system: isolated guinea pig ileum (serotonin); experiment: Antiserotonin activity in vitro: serotonin-induced contractions of isolated guinea pig ileum; settings: serotonin 10^-6 g/ml
Description: Antiserotonin Activity: In vitro, contractions induced in isolated guinea pig ileum by 10^-6 g/ml serotonin were inhibited by COR 2838 in a concentration of 4.10^-7 g/ml and COR 2831 and COR 2833 in a concentration of 2.10^-6 g/ml.

[12] = system: spontaneously hypertensive rats; experiment: Antihypertensive activity, spontaneously hypertensive rats, oral, two days, sphygmomanometer; format: in vivo; settings: 100 mg/kg/day for two days, one hour after gavage
Description: Antihypertensive Activity: The test products were administered orally to spontaneously hypertensive rats. Arterial pressure was measured indirectly with a sphygmomanometer.

platelet aggregation = experiment: Platelet anti-aggregation activity: sodium arachidonate-induced aggregation in rabbit plasma with a high platelet content; format: cell-based; settings: Oryctolagus cuniculus, 50 mcg/ml sodium arachidonate; for inhibition at 5 µg/mL: 5 mcg/ml
Description: In the presence of aspirin, this inhibition was 100% in a concentration of 2.5 mcg/ml COR 2860 and a concentration of 5 mcg/ml COR 2864. In the absence of aspirin, the inhibition was 100% with a concentration of 5 mcg/ml COR 2860 and 10 mcg/ml COR 2864.

fasting mice = experiment: Hypoglycemic activity: blood sugar of fasting mice subjected to an excess of glucose; format: in vivo; settings: one hour after oral 100 mg per kg, excess of glucose (1 g per kg)
Description: (§3) Hypoglycemic Activity: One hour after oral administration of a dose of 100 mg/kg, COR 2839 produced a 21% reduction in the glucose tolerance curve after an excess of starch (2.5 g per kg). One hour after oral administration of a dose of 100 mg per kg, COR 2839 brought about a decrease of 24% in the blook sugar of fasting mice subjected to an excess of glucose (1 g per kg) at the time that the test product was tiven.

glucose tolerance curve = experiment: Hypoglycemic activity: glucose tolerance curve after an excess of starch; format: in vivo; settings: one hour after oral 100 mg/kg, excess of starch (2.5 g per kg)
Description: as §3

left guinea pig auricle = experiment: Anticalcium activity: electrically stimulated left guinea pig auricle, calcium-induced contraction force; settings: 25.10^-6 g/ml; 0.6 mM calcium added; 150 beats/min, low calcium Tyrode's solution
[13] = system: strips of mesenteric veins; experiment: Anticalcium activity: calcium-induced increment of spontaneous contractions in mesenteric vein strips; settings: 5.10^-6 g/ml, rats with normal blood pressure
Description: At 5.10^-6 g/ml, COR 2838 inhibited the calcium-induced increment of spontaneous contractions in strips of mesenteric veins from rats with normal blood pressure.

[14] = Solubility and hygroscopicity of the isolated product; format: physicochemical; settings: dihydrochloride
Description: A solution of 6 g 4-isopropyl-2-methyl-4-methylaminoethoxy phenol and 6 g 1-chloroethyl-4-phenylpiperazine in 10 ml triethylamine and 150 ml ethyl alcohol is heated for 20 hours in a reflux system. The excess ethyl alcohol and triethylamine are evaporated. The residue is taken up in an aqueous solution of hydrochloric acid. The solution obtained is extracted with chloroform. The aqueous phase is alkalized with ammonia and then extracted again with chloroform. After drying and evaporation of the chloroform, 9.3 g of crude product is obtained. This is purified by silica chromatography using as the eluent pure chloroform followed by a mixture of 98% chloroform and 2% methanol. This procedure yield 4.6 g of free base; yield, 42%. The latter is transformed into a hydrochloride by a saturated ethyl ether solution in gaseous hydrochloric acid. This produces a white solid which is filtered and washed with a little ethyl ether.

[15] = mice, intraperitoneal dose of 200 mg per kg

Cc1cc(OCCN2CCN(c3cccc(Cl)c3)CC2)c(C(C)C)cc1O [COR 2842, 5-Isopropyl-2-methyl-4-((3-chlorophenyl)piperazinylethoxy)phenol hydrochloride]
deaths (mice [1]; [15]): no deaths
inhibition in vivo at 3 µmol/kg ([2]; 3.10^-6 M/kg): 35.1%
deaths (mice [3]): no deaths

CC(CCc1ccccc1)NCC(O)c1ccc(O)c(C(N)=O)c1 (centres unmarked) [labetalol, reference compound]
inhibition of mydriasis [4]: 58%

Cc1cc(OCCN2CCN(c3ccc(F)cc3)CC2)c(C(C)C)cc1O [COR 2841, 5-Isopropyl-2-methyl-4-(p-fluorophenylpiperazinylethoxy)phenol hydrochloride]
inhibition in vivo at 3 µmol/kg ([2]; 3.10^-6 M/kg): 39.8%
deaths (mice [3]): no deaths

Cc1cc(OCCN2CCN(c3ccccc3)CC2)c(C(C)C)cc1O [COR 2837, 5-Isopropyl-2-methyl-4-phenylpiperazinylethoxyphenol hydrochloride]
deaths (mice [1]; [15]): no deaths
inhibition in vivo at 3 µmol/kg ([2]; 3.10^-6 M/kg): 91.1%
deaths (mice [3]): no deaths

COc1ccccc1N1CCN(CCOc2cc(C)c(O)cc2C(C)C)CC1 [COR 2831, 5-Isopropyl-2-methyl-4-(2-methoxyphenylpiperazinyl)ethoxy)phenol hydrochloride]
ED50 (histamine; IV route): 0.37 mg/kg
ED50 (histamine; Oral route): 8 mg/kg
ED50 (IgE; IV route): 0.27 mg/kg
ED50 (IgE; Oral route): 14.4 mg/kg
interval between introduction of the test product and of the […] into the bath, which corresponds to the maximum activity (Alpha-1 [5]): 90 min
LD50 [6]: 86 mg/kg
deaths (mice [1]; [15]): no deaths
ED50 ([2]; 2 min, after 2 min): 0.0195 µmol/kg
ED50 ([2]; 0.5 h, after 30 min): 0.304 µmol/kg
ED50 ([2]; 1 h, after 60 min): 0.84 µmol/kg
inhibition in vivo at 3 µmol/kg ([2]; 3.10^-6 M/kg): 129%
interval after which residual activity was equal to 50% of the maximum activity ([2]; 3.10^-6 M/kg): > 2 h
inhibition of histamine-induced contractions ([7]; 10^-5 g/ml): 80%
pA2 (Alpha-1 [8]; Arunlakshama and Schild method): 8.59±0.08
type of antagonism (Alpha-1 [8]; vis-a-vis norepinephrine): competitive nature
deaths (mice [3]): no deaths
LD50 [9]: 1130 mg/kg
activity in the passive cutaneous anaphylaxis test ([10]; oral, 5 mg/kg): 67%
inhibition of serotonin-induced contractions ([11]; 2.10^-6 g/ml): inhibited
maximum pressure reduction ([12]; first day): 26%
maximum pressure reduction ([12]; second day): 21%

Cc1cc(OCCN2CCN(c3ccccc3Cl)CC2)c(C(C)C)cc1O [COR 2864, 5-Isopropyl-2-methyl-4-((2-chlorophenyl)piperazinylethoxy)phenol hydrochloride]
deaths (mice [1]; [15]): no deaths
inhibition in vivo at 3 µmol/kg ([2]; 3.10^-6 M/kg): 98.6%
inhibition at 5 µg/mL (platelet aggregation; in the presence of aspirin (1 mcg/ml)): 100%
inhibition at 10 µg/mL (platelet aggregation; 10 mcg/ml, in the absence of aspirin): 100%
deaths (mice [3]): no deaths

Cc1cc(OCCN2CCN(c3ccccc3C)CC2)c(C(C)C)cc1O [COR 2843, 5-Isopropyl-2-methyl-4-(2-methylphenyl) piperazinylethoxy phenol hydrochloride]
deaths (mice [1]; [15]): no deaths
inhibition in vivo at 3 µmol/kg ([2]; 3.10^-6 M/kg): 112%
deaths (mice [3]): no deaths

COc1ccccc1N1CCN(CCN(C)CCOc2cc(C)c(O)cc2C(C)C)CC1 [COR 2833, 5-Isopropyl-2-methyl-4-((N-methyl N-2-((2-methoxyphenyl)piperazinylethyl)amino)ethoxyphenoldihydrochloride]
inhibition of histamine-induced contractions ([7]; concentration of 2.10^-6): 80%
activity in the passive cutaneous anaphylaxis test ([10]; intravenous, 10 mg/kg): 53%
inhibition of serotonin-induced contractions ([11]; 2.10^-6 g/ml): inhibited

Cc1cc(OCCN2CCN(c3cccc(C(F)(F)F)c3)CC2)c(C(C)C)cc1O [COR 2839, 5-Isopropyl-2-methyl-4-(3-trifluoromethylphenyl) piperazinyl-ethoxy)phenol hydrochloride]
deaths (mice [1]; [15]): no deaths
decrease in the blood sugar (fasting mice): 24%
reduction in the glucose tolerance curve (glucose tolerance curve): 21%

COc1ccc(N2CCN(CCOc3cc(C)c(O)cc3C(C)C)CC2)cc1 [COR 2860, 5-Isopropyl-2-methyl-4-((4-methoxyphenylpiperazinyl)ethoxy)phenol dihydrochloride]
deaths (mice [1]; [15]): no deaths
inhibition in vivo at 3 µmol/kg ([2]; 3.10^-6 M/kg): 39.7%
inhibition at 2.5 µg/mL (platelet aggregation; 2.5 mcg/ml, in the presence of aspirin (1 mcg/ml)): 100%
inhibition at 5 µg/mL (platelet aggregation; in the absence of aspirin): 100%
deaths (mice [3]): no deaths

Cc1cc(OCCN2CCN(c3cccc(C)c3C)CC2)c(C(C)C)cc1O [COR 2861, 5-Isopropyl-2-methyl-4-((2,3-dimethylphenylpiperazinyl)ethoxyphenol hydrochloride]
deaths (mice [1]; [15]): no deaths
inhibition in vivo at 3 µmol/kg ([2]; 3.10^-6 M/kg): 66.4%
deaths (mice [3]): no deaths

Cc1cc(OCCN(C)CCN2CCN(c3ccccc3)CC2)c(C(C)C)cc1O [COR 2838, 5-Isopropyl-2-methyl-4-((N-methyl N-2-(phenylpiperazinyl-ethyl)amino)ethoxy) phenol dihydrochloride]
interval between introduction of the test product and of the […] into the bath, which corresponds to the maximum activity (Alpha-1 [5]): 60 min
deaths (mice [1]; mouse, in vivo, ip, 50 mg/kg): no deaths
inhibition in vivo at 3 µmol/kg ([2]; 3.10^-6 M/kg): 60%
inhibition of histamine-induced contractions ([7]; 10^-5 g/ml): 80%
inhibition of the increment in the contraction force induced by calcium (left guinea pig auricle): 50%
activity in the passive cutaneous anaphylaxis test ([10]; intravenous, 10 mg/kg): 60%
inhibition of serotonin-induced contractions ([11]; 4.10^-7 g/ml): inhibited
inhibition of calcium-induced increment of spontaneous contractions [13]: inhibited
hygroscopicity [14]: hygroscopic
solubility in water [14]: soluble in water
